# Test results from patent US20150164895A1, “DETERMINING SENSITIVITY OF CELLS TO B-RAF INHIBITOR TREATMENT BY DETECTING KRAS MUTATION AND RTK EXPRESSION LEVELS” (GENENTECH, INC., priority 2009, published 2015).
# Values joined by “and” are separate entries in the source; they are usually repeats but may differ in a detail not shown here. Identical values can stand only once.
# Key:
# [1] = system: phospho-MEK in B-RAF V600E mutant cell lines; experiment: Phospho-MEK MSD assay, basal and EGF-stimulated; assay type: cell-based; conditions: basal and EGF-stimulated (20 ng/ml EGF); compared with PLX4720
# Protocol: (A) Cells were treated with […] compound in serum free media for 1 hour. For stimulation 20 ng/ml EGF was added for 5 min before cells were lysed. Lysates were transferred to an MSD plate where phospho- and total MEK levels were measured. […] Cells were dosed with indicated inhibitors, either alone or in combination in the presence of 20 ng/ml EGF in the media.
# [2] = system: LXFA 983/9N4 (Lung, adeno); experiment: Oncotest Exp H331: growth of LXFA 983 lung tumor xenograft after dosing with B-RAF inhibitor; assay type: in vivo, mice; conditions: H331-2, 100 mg/kg/day, Days 0-21; for Absolute body weight, Median / Relative body weight, Median / Absolute tumor volume: (a*b*b)/2, Median / Relative tumor volume, Median: group median; for Absolute body weight, Median / Relative body weight, Median: n 10; for Absolute tumor volume: (a*b*b)/2, Median / Relative tumor volume, Median: n 15; for Relative tumor volume / Absolute tumor volume: (a*b*b)/2: individual tumors
# Excerpt: FIGS. 10-18 depict growth in lung tumor xenografts after dosing with GDC-0879.
# The data are shown below, and in FIGS. 10-14 for Experiment H331 and FIGS. 15-18 for Experiment H327.
# [3] = study day 3, individual animals, listed as G-026887
# [4] = study day 3, listed as G-026887
# [5] = study day 7, individual animals, listed as G-026887
# [6] = study day 7, listed as G-026887
# [7] = study day 10, individual animals, listed as G-026887
structure (smiles),measurement,setting,value
"OCCn1cc(-c2ccc3c(c2)CC/C3=N\O)c(-c2ccncc2)n1 [GDC-0879, 2-{4-[(1E)-1-(hydroxyimino)-2,3-dihydro-1H-inden-5-yl]-3-(pyridine-4-yl)-1H-pyrazol-1-yl}ethan-1-ol]",knocking down phospho-MEK levels,[1],more effective in knocking down phospho-MEK levels
same,Survival time,"[2]; individual animals, listed as G-026887",>22 days (6×) and >21 days (14×)
same,"Absolute body weight, Median",[2]; study day 0,27.5 g
same,"Relative body weight, Median",[2]; study day 0,100.0%
same,"Absolute tumor volume: (a*b*b)/2, Median",[2]; study day 0,117.2 mm3
same,"Relative tumor volume, Median",[2]; study day 0,100.0%
same,Relative body weight,"[2]; study day 0, individual animals",100.0%
same,Absolute body weight,"[2]; study day 0, individual animals, listed as G-026887",27.2 g and 26.9 g and 27.3 g and 26.1 g and 29.4 g and 24.8 g and 31.2 g (2×) and 30.2 g and 27.6 g
same,Relative tumor volume,[2]; study day 0,100.0%
same,Absolute tumor volume: (a*b*b)/2,"[2]; study day 0, listed as G-026887",117.2 mm3 and 121.1 mm3 and 94.1 mm3 and 137.3 mm3 and 237.3 mm3 and 62.5 mm3 and 80.2 mm3 and 123.0 mm3 and 111.6 mm3 and 74.4 mm3 (2×) and 219.4 mm3 and 55.3 mm3 and 150.4 mm3 and 130.7 mm3
same,"Absolute body weight, Median",[2]; study day 3,27.2 g
same,"Relative body weight, Median",[2]; study day 3,97.9%
same,"Absolute tumor volume: (a*b*b)/2, Median",[2]; study day 3,236.3 mm3
same,"Relative tumor volume, Median",[2]; study day 3,211.7%
same,Absolute body weight,[2]; [3],26.8 g and 27.2 g and 26.7 g and 25.6 g and 27.9 g and 24.7 g and 29.4 g and 29.2 g and 27.1 g and 29.6 g
same,Relative body weight,[2]; [3],94.9% (2×) and 98.5% and 101.1% and 97.8% and 98.1% and 99.6% and 94.2% and 96.7% and 98.2%
same,Absolute tumor volume: (a*b*b)/2,[2]; [4],265.6 mm3 and 166.6 mm3 and 188.5 mm3 and 239.1 mm3 and 546.2 mm3 and 176.4 mm3 and 210.9 mm3 and 268.8 mm3 and 236.3 mm3 and 156.8 mm3 and 392.9 mm3 and 119.1 mm3 and 310.7 mm3 and 295.9 mm3 and 83.2 mm3
same,Relative tumor volume,[2]; [4],111.8% and 226.6% and 137.6% and 200.4% and 174.1% and 230.2% and 282.2% and 263.0% and 218.5% and 211.7% and 210.9% and 179.1% and 215.3% and 206.6% and 226.4%
same,"Absolute body weight, Median",[2]; study day 7,27.3 g
same,"Relative body weight, Median",[2]; study day 7,96.5%
same,"Absolute tumor volume: (a*b*b)/2, Median",[2]; study day 7,348.2 mm3
same,"Relative tumor volume, Median",[2]; study day 7,293.3%
same,Absolute body weight,[2]; [5],26.3 g (2×) and 27.4 g and 25.7 g and 27.1 g and 24.2 g and 28.9 g and 28.1 g and 27.6 g and 29.3 g
same,Relative body weight,[2]; [5],93.9% and 96.7% and 101.9% and 96.3% and 98.5% and 92.2% and 97.6% and 92.6% and 93.0% and 100.0%
same,Absolute tumor volume: (a*b*b)/2,[2]; [6],392.9 mm3 and 325.1 mm3 and 261.6 mm3 and 445.5 mm3 and 689.1 mm3 and 289.1 mm3 and 348.2 mm3 and 344.4 mm3 and 455.1 mm3 and 253.1 mm3 and 560.0 mm3 and 216.6 mm3 and 352.5 mm3 and 383.3 mm3
same,Relative tumor volume,[2]; [6],152.3% and 335.2% and 268.5% and 278.0% and 324.4% and 290.4% and 462.6% and 434.2% and 280.0% and 407.8% and 340.4% and 255.3% and 391.6% and 234.4%
same,"Absolute body weight, Median",[2]; study day 10,27.3 g
same,"Relative body weight, Median",[2]; study day 10,97.9%
same,"Absolute tumor volume: (a*b*b)/2, Median",[2]; study day 10,406.6 mm3
same,"Relative tumor volume, Median",[2]; study day 10,392.5%
same,Absolute body weight,[2]; [7],26.7 g (2×) and 26.9 g and 25.6 g and 27.6 g and 25.3 g and 29.1 g (2×) and 28.6 g (2×)
same,Relative body weight,[2]; [7],91.7% and 98.2% and 100.0% and 97.8% and 98.1% and 93.9% and 102.0% and 93.3% and 96.4% and 103.6%
